# Test system: HCV genotype-1a variant with glutamine 30 changed to glutamate in the NS5A protein
# Assay type: cell-based
# Conditions: test compound titrated with BMS-790052 fixed at 200 nM; genotype 1a Q30E replicon
# Method in brief: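 Synergy was assessed by combining several fixed amounts of an NS5A-targeting compound with a titration of the second compound of interest.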
row,Compound,Fold-Synergistic 1a (Q30E)
1,CC(C)[C@H](NC(=O)c1cc(Cl)ccc1F)c1nc(-c2ccc(-c3ccc(-c4c[nH]c([C@@H](NC(=O)c5cc(Cl)ccc5F)C(C)C)n4)c(F)c3)cc2)c[nH]1.O=C(O)C(F)(F)F [Compound N-88],>100 fold
2,CC(C)[C@H](NC(=O)C(C)(C)C)c1nc(-c2ccc(-c3ccc(-c4c[nH]c([C@@H](NC(=O)C(C)(C)C)C(C)C)n4)c(F)c3)cc2)c[nH]1.O=C(O)C(F)(F)F [Compound N-89],>100 fold
3,CC(C)[C@H](NC(=O)C(C)(C)F)c1nc(-c2ccc(-c3ccc(-c4c[nH]c([C@@H](NC(=O)C(C)(C)F)C(C)C)n4)c(F)c3)cc2)c[nH]1.O=C(O)C(F)(F)F [Compound N-90],>100 fold
4,CC(C)[C@H](NC(=O)C(C)(C)OCC(F)F)c1nc(-c2ccc(-c3ccc(-c4c[nH]c([C@@H](NC(=O)C(C)(C)OCC(F)F)C(C)C)n4)c(F)c3)cc2)c[nH]1.O=C(O)C(F)(F)F [Compound N-91],>100 fold
5,CC(C)[C@H](NC(=O)c1ccccc1F)c1nc(-c2ccc(-c3ccc(-c4c[nH]c([C@@H](NC(=O)c5ccccc5F)C(C)C)n4)c(F)c3)cc2)c[nH]1.O=C(O)C(F)(F)F [Compound N-92],>100 fold
6,CC(C)(C)C(=O)N[C@H](c1nc(-c2ccc(-c3ccc(-c4c[nH]c([C@@H](NC(=O)C(C)(C)C)C(C)(C)C)n4)c(F)c3)cc2)c[nH]1)C(C)(C)C.O=C(O)C(F)(F)F [Compound N-93],>100 fold
7,COC(C)(C)C(=O)N[C@H](c1nc(-c2ccc(-c3ccc(-c4c[nH]c([C@@H](NC(=O)C(C)(C)OC)C(C)(C)C)n4)c(F)c3)cc2)c[nH]1)C(C)(C)C.O=C(O)C(F)(F)F [Compound N-94],>100 fold
8,CC(C)(C)[C@H](NC(=O)c1ccccc1F)c1nc(-c2ccc(-c3ccc(-c4c[nH]c([C@@H](NC(=O)c5ccccc5F)C(C)(C)C)n4)c(F)c3)cc2)c[nH]1.O=C(O)C(F)(F)F [Compound N-95],>100 fold
9,COC(C)(C)C(=O)N[C@H](c1nc(-c2ccc(-c3ccc(-c4c[nH]c([C@@H](NC(=O)C(C)(C)OC)C(C)C)n4)cc3F)cc2)c[nH]1)C(C)C.O=C(O)C(F)(F)F [Compound N-96],>100 fold
10,CC(C)[C@H](NC(=O)C(C)(C)F)c1nc(-c2ccc(-c3ccc(-c4c[nH]c([C@@H](NC(=O)C(C)(C)F)C(C)C)n4)cc3F)cc2)c[nH]1.O=C(O)C(F)(F)F [Compound N-97],>100 fold
11,CC(C)[C@H](NC(=O)C(C)(C)OCC(F)F)c1nc(-c2ccc(-c3ccc(-c4c[nH]c([C@@H](NC(=O)C(C)(C)OCC(F)F)C(C)C)n4)cc3F)cc2)c[nH]1.O=C(O)C(F)(F)F [Compound N-98],>100 fold
12,CC(C)[C@H](NC(=O)c1cc(Cl)ccc1F)c1nc(-c2ccc(-c3ccc(-c4c[nH]c([C@@H](NC(=O)c5cc(Cl)ccc5F)C(C)C)n4)cc3F)cc2)c[nH]1.O=C(O)C(F)(F)F [Compound N-99],>100 fold
13,CC(C)[C@H](NC(=O)C(C)(C)C)c1nc(-c2ccc(-c3ccc(-c4c[nH]c([C@@H](NC(=O)C(C)(C)C)C(C)C)n4)cc3F)cc2)c[nH]1.O=C(O)C(F)(F)F [Compound N-100],>100 fold
14,"CC(C)[C@H](NC(=O)C(C)(C)C)c1nc(-c2ccc(-c3ccc(-c4c[nH]c([C@@H](NC(=O)C(C)(C)C)C(C)C)n4)nc3)cc2)c[nH]1 [Compound N-101, N—((S)-2-methyl-1-(4-(4-(6-(2-((S)-2-methyl-1-pivalamidopropyl)-1H-imidazol-4-yl)pyridin-3-yl)phenyl)-1H-imidazol-2-yl)propyl)pivalamide]",>100 fold
15,COC(C)(C)C(=O)N[C@H](c1nc(-c2ccc(-c3ccc(-c4c[nH]c([C@@H](NC(=O)C(C)(C)OC)C(C)C)n4)cn3)cc2)c[nH]1)C(C)C.O=C(O)C(F)(F)F [Compound N-102],>100 fold
16,CC(C)[C@H](NC(=O)C(C)(C)C)c1nc(-c2ccc(-c3ccc(-c4c[nH]c([C@@H](NC(=O)C(C)(C)C)C(C)C)n4)cn3)cc2)c[nH]1.O=C(O)C(F)(F)F [Compound N-103],>100 fold
17,CC(C)(C)[C@H](NC(=O)C1CCC(F)(F)CC1)c1nc(-c2ccc(-c3ncc(-c4c[nH]c([C@@H](NC(=O)C5CCC(F)(F)CC5)C(C)(C)C)n4)cn3)cc2)c[nH]1 [Compound N-104],>100 fold
18,CC(C)(C)C(=O)N[C@H](c1nc(-c2ccc(-c3cnc(-c4c[nH]c([C@@H](NC(=O)C(C)(C)C)C(C)(C)C)n4)cn3)cc2)c[nH]1)C(C)(C)C.O=C(O)C(F)(F)F [Compound N-105],>100 fold
19,CC(C)(C)C(=O)N[C@H](c1nc(-c2ccc(-c3ccc(-c4c[nH]c([C@@H](NC(=O)C(C)(C)C)C(C)(C)CO)n4)cc3)cc2)c[nH]1)C(C)(C)CO [Compound N-110],>100 fold
20,CC(C)(C)[C@H](NC(=O)CC1CCC(F)(F)CC1)c1nc(-c2ccc(-c3ccc(-c4c[nH]c([C@@H](NC(=O)CC5CCC(F)(F)CC5)C(C)(C)C)n4)cc3)cc2)c[nH]1 [Compound N-112],>100 fold

row,Compound,Fold-Synergistic 1a (Q30E)
1,CC1(C(=O)N[C@H](c2nc(-c3ccc(-c4ccc(-c5c[nH]c([C@@H](NC(=O)C6(C)COC6)C(C)(C)C)n5)cc4)cc3)c[nH]2)C(C)(C)C)COC1 [Compound N-113],>100 fold
2,CC(C)(C)[C@H](NC(=O)c1ccc(C(F)(F)F)s1)c1nc(-c2ccc(-c3ccc(-c4c[nH]c([C@@H](NC(=O)c5ccc(C(F)(F)F)s5)C(C)(C)C)n4)cc3)cc2)c[nH]1 [Compound N-114],>100 fold
3,CC(C)(F)C(=O)N[C@H](c1nc(-c2ccc(-c3ccc(-c4c[nH]c([C@@H](NC(=O)C(C)(C)F)C(C)(C)C)n4)cc3)cc2)c[nH]1)C(C)(C)C [Compound N-115],>100 fold
4,CC(C)(OCC(F)F)C(=O)N[C@H](c1nc(-c2ccc(-c3ccc(-c4c[nH]c([C@@H](NC(=O)C(C)(C)OCC(F)F)C(C)(C)C)n4)cc3)cc2)c[nH]1)C(C)(C)C [Compound N-116],<10 fold
5,CC(C)CC(=O)N[C@H](c1nc(-c2ccc(-c3ccc(-c4c[nH]c([C@@H](NC(=O)CC(C)C)C(C)(C)C)n4)cc3)cc2)c[nH]1)C(C)(C)C [Compound N-117],>100 fold
6,C=C1CCC(C(=O)N[C@H](c2nc(-c3ccc(-c4ccc(-c5c[nH]c([C@@H](NC(=O)C6CCC(=C)CC6)C(C)(C)C)n5)cc4)cc3)c[nH]2)C(C)(C)C)CC1 [Compound N-118],>100 fold
7,CC(C)(C)[C@H](NC(=O)CC1CC(F)(F)C1)c1nc(-c2ccc(-c3ccc(-c4c[nH]c([C@@H](NC(=O)CC5CC(F)(F)C5)C(C)(C)C)n4)cc3)cc2)c[nH]1 [Compound N-120],>100 fold
8,CC(C)(C)[C@H](NC(=O)C1CCC(=C(F)F)CC1)c1nc(-c2ccc(-c3ccc(-c4c[nH]c([C@@H](NC(=O)C5CCC(=C(F)F)CC5)C(C)(C)C)n4)cc3)cc2)c[nH]1 (stereo partly shown) [Compound N-121],>100 fold
9,CC(C)(C)[C@H](NC(=O)C1CCC2(CC1)CC2)c1nc(-c2ccc(-c3ccc(-c4c[nH]c([C@@H](NC(=O)C5CCC6(CC5)CC6)C(C)(C)C)n4)cc3)cc2)c[nH]1 (stereo partly shown) [Compound N-123],>100 fold
10,CC(C)(C)[C@H](NC(=O)[C@@]1(C)CCC(F)(F)CO1)c1nc(-c2ccc(-c3cnc(-c4c[nH]c([C@@H](NC(=O)[C@@]5(C)CCC(F)(F)CO5)C(C)(C)C)n4)cn3)cc2)c[nH]1 [Compound N-130],>100 fold
11,CC(C)[C@H](NC(=O)[C@@]1(C)CCC(F)(F)CO1)c1nc(-c2ccc3c(c2)CCc2cc(-c4c[nH]c([C@@H](NC(=O)[C@@]5(C)CCC(F)(F)CO5)C(C)C)n4)ccc2-3)c[nH]1 [Compound N-131],>100 fold
12,CC(C)[C@H](NC(=O)[C@@]1(C)CCC(F)(F)CO1)c1nc(-c2ccc(-c3ccc(-c4c[nH]c([C@@H](NC(=O)[C@@]5(C)CCC(F)(F)CO5)C(C)C)n4)c(F)c3)cc2)c[nH]1 [Compound N-132],>100 fold
13,CC(C)[C@H](NC(=O)[C@@]1(C)CCC(F)(F)CO1)c1nc(-c2ccc(-c3ccc(-c4c[nH]c([C@@H](NC(=O)[C@@]5(C)CCC(F)(F)CO5)C(C)C)n4)cc3F)cc2)c[nH]1 [Compound N-133],>100 fold
14,CC(C)[C@H](NC(=O)[C@@]1(C)CCC(F)(F)CO1)c1nc(-c2ccc(-c3ccc(-c4c[nH]c([C@@H](NC(=O)[C@@]5(C)CCC(F)(F)CO5)C(C)C)n4)cn3)cc2)c[nH]1 [Compound N-134],>100 fold
15,CC(C)(C)[C@H](NC(=O)C(O)(CF)CF)c1nc(-c2ccc(-c3ccc(-c4c[nH]c([C@@H](NC(=O)C(O)(CF)CF)C(C)(C)C)n4)cc3)cc2)c[nH]1 [Compound N-140],>100 fold
16,CC1([C@H](NC(=O)C(O)(CF)CF)c2nc(-c3ccc(-c4ccc(-c5c[nH]c([C@@H](NC(=O)C(O)(CF)CF)C6(C)CC6)n5)cc4)cc3)c[nH]2)CC1 [Compound N-141],>100 fold
17,CC(C)[C@H](NC(=O)C(O)(CF)CF)c1nc(-c2ccc(-c3ccc(-c4c[nH]c([C@@H](NC(=O)C(O)(CF)CF)C(C)C)n4)cc3)cc2)c[nH]1 [Compound N-142],>100 fold
18,CCOC(=O)C1(C(=O)N[C@H](c2nc(-c3ccc(-c4ccc(-c5c[nH]c([C@@H](NC(=O)C6(C(=O)OCC)CCCCC6)C(C)(C)C)n5)cc4)cc3)c[nH]2)C(C)(C)C)CCCCC1 [Compound N-146],>100 fold
19,CC(C)(C)[C@H](NC(=O)C1(C(=O)O)CCCCC1)c1nc(-c2ccc(-c3ccc(-c4c[nH]c([C@@H](NC(=O)C5(C(=O)O)CCCCC5)C(C)(C)C)n4)cc3)cc2)c[nH]1 [Compound N-147],>100 fold
20,CC(C)(C)[C@H](NC(=O)C1(CO)CC(F)(F)C1)c1nc(-c2ccc(-c3ccc(-c4c[nH]c([C@@H](NC(=O)C5(CO)CC(F)(F)C5)C(C)(C)C)n4)cc3)cc2)c[nH]1 [Compound N-153],>100 fold

# Source: patent US20160158200A1, “Combinations of Hepatitis C Virus Inhibitors” (priority 2013, published 2016)
